This data set can be described thus: Volatility of perfuming compounds in air. It counts as physicochemical.
The mark [1] stands for this setting: Table 5, perfuming compounds having a green note.
[2] abbreviates: Table 6, perfuming compounds having a fruity note.
Where [3] appears, read: Table 8, perfuming compounds having a sweet note.
[4] abbreviates: Table 10, perfuming compounds having a woody note.
The mark [5] stands for this setting: Table 9, perfuming compounds having a gourmand note.

Where two headings read alike, the source gives them in different places.

With `COc1ccc(C(C)=O)cc1` [1-(4-METHOXYPHENYL)-1-ETHANONE”], the Volatility under setting [1] came to 50.21 μg/l air.
As to `CCC(=O)OCC(C)(C)OC(C)C1CCCC(C)(C)C1` (single isomer, unassigned; (+)), the “Volatility (μg/l air)” value under setting [2] was found to be 4.39 μg/l air.
Take `COc1cc(C)ccc1O` [2-METHOXY-4-METHYLPHENOL]: the “Volatility (μg/l air)” value under setting [3] came out at 306.61 μg/l air.
Regarding `COC(=O)C1C(C)=CCCC1(C)C` (racemic), under setting [1], the Volatility is on record as 2010.91 μg/l air.
For `CCC(O)COC1CCCCC1C(C)(C)C` (racemic), under setting [4], the “Volatility (μg/l air)” value worked out at 205.05 μg/l air.
Regarding `CC(=O)CCc1ccc(O)cc1` [4-(4-HYDROXY-1-PHENYL)-2-BUTANONE], under setting [2], the “Volatility (μg/l air)” value came to 0.36 μg/l air.
As to `Cc1cnc(C)c(C)n1` [2,3,5-TRIMETHYLPYRAZINE], the “Volatility (μg/l air)” value under setting [3] was 7897.31 μg/l air.
As to `CC(C)=CCC/C(C)=C\CO`, under “Table 7, citrus note”, the Volatility is on record as 86.02 μg/l air.
Under setting [1], `COCCc1ccccc1` [(2-METHOXYETHYL)BENZENE] returned a Volatility of 1239.07 μg/l air.
Consider `COc1ccc(CCC(C)=O)cc1` [4-(4-METHOXYPHENYL)-2-BUTANONE], for which the “Volatility (μg/l air)” value under setting [2] amounted to 5.58 μg/l air, the “Volatility (μg/l air)” value under setting [3] was 5.58 μg/l air and the “Volatility (μg/l air)” value under setting [5] amounted to 5.58 μg/l air.
`C/C=C(\C)C(=O)OCc1ccccc1` [BENZYL (E)-2-METHYL-2-BUTENOATE]: the “Volatility (μg/l air)” value reads like this: under setting [2], 33.88 μg/l air; under setting [4], 33.88 μg/l air.
`CC/C=C\CCOC(C)=O` [(Z)-3-HEXENYL ACETATE] yielded a Volatility under setting [1] of 3398.34 μg/l air.
Take `N#CC(=C1CCCCC1)c1ccccc1` [CYCLOHEXYLIDENE(PHENYL)ACETONITRILE]: the Volatility under setting [1] stood at 0.96 μg/l air.
As to `CC1=CC[C@H](C(C)CC2CCCC2=O)CC1` (stereo partly drawn), the “Volatility (μg/l air)” value reads like this: under setting [2], 2.05 μg/l air; under setting [3], 2.05 μg/l air; under setting [5], 2.05 μg/l air.
`CCCC1CCC(=O)O1` (racemic) [(+−)-4-HEPTANOLIDE]: the “Volatility (μg/l air)” value under setting [3] was determined as 295.34 μg/l air.
For `CC(C)(C)C(=O)OCCc1ccccc1` [2-PHENYLETHYL PIVALATE], the “Volatility (μg/l air)” value reads like this: under setting [2], 71.44 μg/l air; under setting [3], 71.44 μg/l air; under setting [5], 71.44 μg/l air.
`CC(=O)/C(C)=C(/C)C(C)C(C)(C)C` (racemic): the “Volatility (μg/l air)” value under setting [4] is 659.22 μg/l air.
Consider `CC(=O)OC/C=C(\C)CCC=C(C)C` [(E)-3,7-DIMETHYL-2,6-OCTADIENYL ACETATE], for which, under setting [2], the “Volatility (μg/l air)” value stood at 85.23 μg/l air.
In the case of `CC(=O)OCCC1CCCCC1` [2-CYCLOHEXYLETHYL ACETATE], the “Volatility (μg/l air)” value amounted to 489.45 μg/l air under setting [3] and 489.45 μg/l air under setting [5].
With `C=C1CCCC(C)(C)C1C(=O)/C=C/C` (racemic), the “Volatility (μg/l air)” value worked out at 152.99 μg/l air under setting [3] and 152.99 μg/l air under setting [5].
Consider `CC(=O)OCCC1=CCC2CC1C2(C)C` (stereo not drawn), for which the “Volatility (μg/l air)” value under setting [4] amounted to 60.02 μg/l air.
Regarding `Cc1occc(=O)c1O` [3-HYDROXY-2-METHYL-4(4H)-PYRANONE], the “Volatility (μg/l air)” value by setting is: under setting [2], 92.42 μg/l air; under setting [3], 92.42 μg/l air.
Turning to `CCCC(=O)OC(C)(C)Cc1ccccc1` [1,1-DIMETHYL-2-PHENYLETHYL BUTANOATE], the “Volatility (μg/l air)” value by setting is: under setting [2], 34.65 μg/l air; under setting [3], 34.65 μg/l air; under setting [5], 34.65 μg/l air.
For the molecule `COC(C)(C)CCCC(C)C(C)O` (racemic), under setting [4], the “Volatility (μg/l air)” value stood at 35.54 μg/l air.
With `Cc1ccc(OCC=O)cc1`, under setting [1], the Volatility is 89.41 μg/l air.
In the case of `OCCc1ccccc1` [2-PHENYLETHANOL], the “Volatility (μg/l air)” value is, setting by setting: under setting [3], 159.75 μg/l air; under setting [5], 159.75 μg/l air.
With `CC(CC=O)CC(C)(C)C` (racemic) [(+−)-3,5,5-TRIMETHYLHEXANAL], under setting [1], the Volatility was 12045.92 μg/l air.
For the molecule `CCCC1CCC(O)C(OC)C1` (stereo not drawn) [2-METHOXY-4-PROPYL-1-CYCLOHEXANOL], the Volatility came out at 189.74 μg/l air.
As for `CCC/C=C/CO` [(E)-2-HEXEN-1-OL], the Volatility under setting [1] is reported as 3752.17 μg/l air.
For the molecule `CCCCCC1CCC(=O)O1` (racemic) [(+−)-4-NONANOLIDE], the “Volatility (μg/l air)” value by setting is: under setting [2], 27.42 μg/l air; under setting [5], 27.42 μg/l air.
With `CC(C)C(=O)OCCc1ccccc1` [2-PHENYLETHYL ISOBUTYRATE], the “Volatility (μg/l air)” value was 67.38 μg/l air under setting [2], 67.38 μg/l air under setting [3] and 67.38 μg/l air under setting [5].
Under setting [1], `COC(OC)C(C)c1ccccc1` (stereo not drawn) [1,1-DIMETHOXY-2-PHENYLPROPANE] registered a Volatility of 376.94 μg/l air.
Take `CCCC(O)CCC1C(C)CCC(C)C1(C)C` (racemic): the “Volatility (μg/l air)” value under setting [4] is 3.42 μg/l air.
In the case of `CC(C)CC(=O)OCc1ccccc1` [BENZYL 3-METHYLBUTANOATE], the “Volatility (μg/l air)” value runs as follows: under setting [2], 63.56 μg/l air; under setting [3], 63.56 μg/l air.
In turn, “3,7-DIMETHYL-2,6-NONADIENENITRILE (A) + 3,7-DIMETHYL-3,6-NONADIENENITRILE (B)” returned a Volatility under setting [1] of 78.89 μg/l air.
In the case of `CC=CC(=O)C(C)CC` (stereo not drawn) [5-METHYL-2-HEPTEN-4-ONE], the “Volatility (μg/l air)” value under setting [3] is 5525.83 μg/l air.
Regarding `CCCC=C1OC(=O)c2ccccc21` [3-BUTYLIDENE-1-BENZO[C]FURANONE], the “Volatility (μg/l air)” value by setting is: under setting [3], 14.37 μg/l air; under setting [5], 14.37 μg/l air.
As for `CCOC(=O)C1OC1(C)c1ccccc1` (stereo not drawn) [ETHYL 2,3-EPDXY-3-PHENYLBUTANOATE], the “Volatility (μg/l air)” value under setting [2] is 12.97 μg/l air.
`CC(C)=CCC/C(C)=C/CO`: the Volatility (Table 7, citrus note) stood at 89.88 μg/l air.
On to `CC(=O)OCCC(C)CCC=C(C)C` (stereo not drawn) [3,7-DIMETHYL-6-OCTENYL ACETATE], for which the “Volatility (μg/l air)” value under setting [2] is given as 128.72 μg/l air.
`CC1=CCC(/C=C/C(C)C(C)O)C1(C)C` (stereo not drawn): the “Volatility (μg/l air)” value under setting [4] came out at 20.41 μg/l air.
For `CCCC(S)CCOC` (racemic) [(+−)-1-METHOXY-3-HEXANETHIOL], under setting [1], the Volatility came out at 2534.77 μg/l air.
Same read-out and setting: the same measure for `CCCC(=NO)C(C)C` [2-METHYL-3-HEXANONE OXIME]: 687.75 μg/l air; for `CCCCCCO` [1-hexanol]: 2070.00 μg/l air.
Consider `CC(=O)c1ccccc1` [1-phenylethanone], for which the “Volatility (μg/l air)” value under setting [3] is 1728.98 μg/l air.
The molecule `COc1ccc(C=O)cc1` [4-METHOXYBENZALDEHYDE] registered a Volatility under setting [1] of 98.47 μg/l air.
On to `CC/C=C\CCCCC=O` [(Z)-6-NONENAL], for which the Volatility under setting [1] stood at 2431.73 μg/l air.
In the case of `CC(C)Cc1ccc2ccccc2n1` [2-ISOBUTYLQUINOLINE], under setting [3], the “Volatility (μg/l air)” value worked out at 8.73 μg/l air.
With `CCC(C)C1(C)COC(C2CCC(C)=CC2C)OC1` (stereo not drawn), the “Volatility (μg/l air)” value under setting [4] worked out at 3.82 μg/l air.
On to `O=c1ccc2ccccc2o1` [2-CHROMENONE], for which the “Volatility (μg/l air)” value runs as follows: under setting [3], 0.51 μg/l air; under setting [5], 0.51 μg/l air.
In the case of `CC(=O)/C(C)=C/C1C(C)=CCCC1(C)C` (racemic), the “Volatility (μg/l air)” value is listed as 36.33 μg/l air under setting [2] and 106.28 μg/l air under setting [4].
With `CC1(C)CCC[C@@]2(C)[C@H]1CC[C@@]1(C)OCC[C@@H]21`, the “Volatility (μg/l air)” value under setting [4] stood at 9.23 μg/l air.

The values above are taken from patent US11427783B2, “Perfuming compositions” (Firmenich SA, priority 2016, dated 2022).
